Assay results from patent publication US20110301079A1, “NEUROMEDIN U RECEPTOR AGONISTS AND USES THEREOF” (Instituto di Ricerche di Biologia Molecolare P. Angeletti …, priority 2007, published 2011).
pEC50: −log10 of the molar value.

Columns and labels:
[1] = system: diet-induced obese animals; assay: Chronic administration by subcutaneous micro-osmotic pumps; type: in vivo, mice; conditions: two weeks
Protocol: Chronic administration of peptide was evaluated using micro-osmotic pumps designed to deliver 0.5 μl/h (Alza Co.). Pumps were filled with peptide or vehicle and implanted subcutaneously in the intrascapular space in diet-induced obese animals. Mice were fed ad libitum and food intake and body weight were measured daily for two weeks. […] Cumulative body weight change (FIG. 2A) and cumulative food intake (FIG. 2B) with two-week treatment of NMU and NMS are shown.

[2] = system: male C57BL/6 diet-induced obese mice; assay: Intraperitoneal glucose tolerance test (IPGTT); type: in vivo; conditions: one and three mpk injected 30 minutes before IPGTT, glucose 2 g/kg i.p., either dosage level
Protocol: Fourteen male C57BL/6 diet-induced obese mice (˜30 wk age) were used. Five hours before the experiment, food was removed, and clean cages were provided. Saline with or without NMS at one and three mpk were injected 30 minutes before the IPGTT and a blood sample was taken. Then glucose (2 g/kg) was injected intraperitoneally. Blood samples were taken after 15, 30, 60, 90, and 120 minutes and glucose levels were determined with the glucose oxidase method.

dog NMUR2 = target: T1, dog NMUR2 (Canis lupus familiaris, UniProt A0A8I3MN59); assay: FLIPR calcium mobilization assay, dog NMUR2 cell line; type: cell-based
T1 construct: expressed in transfected cells
T1 sequence (A0A8I3MN59 1-378): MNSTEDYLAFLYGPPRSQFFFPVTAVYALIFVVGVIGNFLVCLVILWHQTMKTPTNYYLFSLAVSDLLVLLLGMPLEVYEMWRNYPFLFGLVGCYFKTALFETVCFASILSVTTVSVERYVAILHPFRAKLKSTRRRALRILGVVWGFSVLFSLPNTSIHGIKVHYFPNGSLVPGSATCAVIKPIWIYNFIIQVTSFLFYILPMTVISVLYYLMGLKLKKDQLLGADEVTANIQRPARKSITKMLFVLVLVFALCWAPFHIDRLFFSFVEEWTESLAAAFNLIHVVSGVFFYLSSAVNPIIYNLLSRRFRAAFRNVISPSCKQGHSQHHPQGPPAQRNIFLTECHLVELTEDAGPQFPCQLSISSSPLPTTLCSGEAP
Source text: (§1) Human, mouse or rat cDNAs encoding NMUR1 or NMUR2 (as described in Howard et al. Nature 406: 70-74 (2000) were subcloned in pcDNA5 (Invitrogen) and transfected into FLP-In CHO cells and HEK-293 FLP-In cells purchased from Invitrogen (Carlsbad, Calif.) using lipofectamine (Invitrogen). The Flp-In system allows integration and expression of a particular gene of interest at a specific genomic location utilizing the Flp recombinase from yeast. The transfected cells were selected by growth in medium containing 200 μg/mL hygromycin (Invitrogen). Populations were frozen at early passage numbers, and these stocks were used for further studies. Stable clones that expressed the mRNAs were identified functionally by FLIPR as well as by RT-PCR. […] Two different rodent NMUR1 cell lines were thus generated: one with the codon as predicted from the genomic databases and another cell line with an engineered methionine (ATG) as the start codon. The dog NMU receptors were also cloned from intestine RNA (NMUR1) and brain (NMUR2) and stable cell lines were generated as used for the human and rodent cell lines. […] To ensure high levels of expression in a heterologous system, a dog NMUR1 cell line was generated that contains an ATG as the start codon. Additionally, stable cell lines expressing the human receptors were generated in HEK-293/aeq 17 cells which stably express the aequorin gene under the CMV promoter. The human NMUR2 cDNA was cloned into pcDNA3.1 and human NMUR1 was subcloned into pIRES-puro (Clontech, Mountain View, Calif.), after transfection cells were selected in media containing G418 and either hygromycin (NMUR2) or puromycin (NMUR1).
(§2) The NMU receptors signal primarily through Gαq/11 proteins; therefore calcium mobilization assays can be utilized for functional activity.
(§3) Stable cell lines expressing human and or rodent NMUR1 or human NMUR2 receptors are plated at a density of 12,000 cells per well overnight on poly-lysine coated 384-well black-walled plates. The following day, the media is removed from the plates and the cells were subsequently loaded with Fluo-3 (Molecular Probes), a calcium sensitive dye, diluted in FLIPR buffer (1× Hank's buffered saline containing 20 mM HEPES, 0.1% BSA, 2.5 mM probenecid (Sigma) and 1.6 mM TR40). All reagents are from Invitrogen unless otherwise noted. Peptide stocks are resuspended in DMSO at a stock concentration of 2 mM and diluted in FLIPR buffer on the day of the experiment to a 4 μM working stock solution.
(§4) After a 90 minute incubation at room-temperature, cell plates are loaded onto a FLIPR (Molecular Devices) to monitor cellular fluorescence (excitation=488 nm; emission=540 nm) before and after compound/peptide addition. Eight to twelve point dose responses are tested on NMUR-expressing cell lines using FLIPR with 1 μM peptide as the highest dose. The response after peptide addition is taken as the maximum fluorescence units minus the fluorescence immediately prior to stimulation for each well. EC50 values are calculated using GraphPad Prism (San Diego, Calif.) software.
(§5) Percent activity refers to the maximum response at 1 μM compared to the human NMU-25 response at the same concentration.

[3] = Pharmacokinetic analysis using the FLIPR-based bioassay of plasma; type: in vivo; conditions: mice, 10 mg/kg subcutaneously, FIG. 5
Protocol: Peptide exposure levels in dosed animals were measured using the bioassay. Animals were dosed subcutaneously and plasma was collected at various time points post-dose. The bioassay is a FLIPR-based assay that measures the concentration of peptide in plasma from animals dosed with hNMU-25 or NMS. The assay is run essentially as described above (Example 2) with the following modifications: sample preparation prior to the assay is performed on ice to minimize degradation of plasma samples. The assay was run with 4% plasma as the final concentration. A three-point titration was done with the dosed plasma and tested on human NMUR1-expressing cell lines using FLIPR. The response after sample addition was taken as the maximum fluorescence units minus the fluorescence immediately prior to stimulation for each well. In addition to a three-point titration of dosed plasma samples, a 16-point titration of the peptide (hNMU-25 or NMS) was run in 4% plasma (naive plasma) to serve as the standard. The concentration of the peptide in plasma was calculated based on extrapolations from the appropriate standard using the GraphPad Prism software.
In the experiment, the animals were dosed subcutaneously with 10 mg/kg of human NMU-25 or human NMS and plasma was collected at various time points post dose and measured in the Bioassay. […]

human NMUR1 = target: T2, human NMUR1 (Homo sapiens, UniProt Q9HB89); assay: FLIPR calcium mobilization assay, human NMUR1-expressing cell line; type: cell-based
T2 construct: expressed in transfected cells; host or cells: FLP-In CHO cells and HEK-293 FLP-In cells (pcDNA5)
T2 sequence (Q9HB89 1-426): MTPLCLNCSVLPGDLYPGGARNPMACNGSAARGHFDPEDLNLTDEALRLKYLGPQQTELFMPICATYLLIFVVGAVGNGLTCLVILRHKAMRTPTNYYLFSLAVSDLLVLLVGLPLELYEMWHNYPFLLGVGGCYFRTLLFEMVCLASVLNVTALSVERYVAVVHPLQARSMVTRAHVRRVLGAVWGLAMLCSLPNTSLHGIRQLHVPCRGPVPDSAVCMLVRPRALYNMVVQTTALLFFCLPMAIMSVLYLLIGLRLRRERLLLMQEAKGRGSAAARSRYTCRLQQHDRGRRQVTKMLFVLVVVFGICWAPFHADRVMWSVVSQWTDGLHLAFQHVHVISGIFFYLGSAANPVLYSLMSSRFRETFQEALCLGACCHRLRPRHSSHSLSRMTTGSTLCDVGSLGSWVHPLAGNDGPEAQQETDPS
Source text: as §1, §2, §3, §4, §5

For “H-ILQRGSGTAAVDFTKKDHTATWGRPFFLFRPRN-NH2 [NMS, reference compound]”, the “effect on food intake and body weight compared with NMU” value [1] was “appeared to be greater than that observed for NMU”, the body weight ([1]; cumulative change, FIG. 2A) was “significantly reduced” and the food intake ([1]; cumulative, FIG. 2B) was “significantly reduced”. The “glucose metabolism (IPGTT)” value [2] was “enhanced glucose metabolism”, the pEC50 (dog NMUR2; dog NMUR2, FLIPR) was 9.00 and the “% Activity” value (dog NMUR2; dog NMUR2, maximum response at 1 μM compared to the human NMU-25 response at the same concentration) was 104%. The “metabolic stability in vivo compared to NMU” value [3] was “greater metabolic stability”, the pEC50 (human NMUR1; human NMUR1, FLIPR) was 8.17 and the “% Activity” value (human NMUR1; human NMUR1, maximum response at 1 μM compared to the human NMU-25 response at the same concentration) was 97%.
